Source: patent EP1621203A1, “RNAIII-inhibiting peptides for treating HIV infection” (Genoscience, priority 2004, dated 2006)
Where a name gives a salt, the structure may show the parent alone. Read-outs that look alike come from different tables or passages of the source. Where a SMILES comes first, the peptide text is derived from it. Bridges are numbered along the chain shown (N, C = ends). Roman numbers before positions name the chains, in order. Where no end group is shown, it is not given here. [ ]: non-standard residue; d: D form. Ava = NCCCCC(=O)O

Experiments:
HIV-1 NL4-3 [1] = format: cell-based; conditions: for IC50: NL4-3
Description: (§1) Cell cultures - Human peripheral blood lymphocytes (PBL) obtained from healthy HIV-seronegative donors were isolated by Ficoll-Hypaque gradient centrifugation and maintained in RPMI 1640 with ultraglutamine supplemented with […], 100 U/ml penicillin and […] streptamycin, and 10% heat-inactivated fetal calf serum. Cells were stimulated three days in the medium supplemented with 20 U/ml phytohemagglutinin P before evaluation of the antiviral activity. The human C8166 T-cell line was maintained in RPMI 1640 supplemented with 100 U/ml penicillin and […] streptamycin, and 10% heat-inactivated fetal calf serum.
(§2) Evaluation of antiviral activity on human immune cells - Samples of 3 x 10^5 human PBL in […] are preincubated in 96-well plates with various concentrations of each peptide at 37°C (incubator flushed with 5% CO2). After 1 hour incubation, […] of viral suspension (HIV-1 NL4-3 strain) was added at a multiplicity of infection of 1,000 TCID50 per ml. After three washings, cells were cultured in 24-well plates with 1 ml of RPMI 1640 in the continuous presence of the peptides. The cell culture medium was replaced at day 4 post-infection. During this assay, treatment with antiviral compounds was permanent (before, during and after infection). Toxicity was evaluated through daily cell counts and trypan-blue exclusion assays. Infection of human PBL was assessed daily by virus-induced cytopathic effects (syncytium formation) and after 14 days by quantification of p24 antigen in culture supernatants. Measurements of HIV-1 p24 concentrations in the culture supernatant were achieved by ELISA with a detection cut-off of 5 pg/ml (p24 HIV kit, Perkin-Elmer). Similar assays were performed with human C8166 T-cells. Data on PBL are the mean of two separate experiments realized in duplicate.

HIV-1 NL4-3 [2] = experiment: Infection assay on human PBL with HIV-1 NL4-3 (syncytium formation, p24 antigen ELISA); format: cell-based; conditions: Human immunodeficiency virus 1, NL43, HIV-1 NL4-3 (1,000 TCID50), peptides continuously present; for IC50: read-out: IC50 (50% inhibitory concentration); for IC100: read-out: IC100 (100% inhibitory concentration)
Description: as §1, §2

Row | Molecule | IC50 (HIV-1 NL4-3 [1]) | IC50 (HIV-1 NL4-3 [2]) | IC100 (HIV-1 NL4-3 [2]) | IC100 (100% inhibitory concentration) (HIV-1 NL4-3 [1]; human PBL, HIV-1 NL4-3 (1,000 TCID50), peptides continuously present)
1 | C[C@@H](O)[C@H](NC(=O)[C@H](Cc1c[nH]c2ccccc12)NC(=O)[C@@H]1CCCN1C(=O)[C@H](CO)NC(=O)[C@@H](N)Cc1ccc(O)cc1)C(=O)N[C@@H](CC(N)=O)C(=O)N[C@@H](Cc1ccccc1)C(=O)NCCCC[C@H](NC(=O)[C@H](Cc1ccccc1)NC(=O)[C@H](CC(N)=O)NC(=O)[C@@H](NC(=O)[C@H](Cc1c[nH]c2ccccc12)NC(=O)[C@@H]1CCCN1C(=O)[C@H](CO)NC(=O)[C@@H](N)Cc1ccc(O)cc1)[C@@H](C)O)C(=O)NCCCC[C@H](NC(=O)[C@H](CCCCNC(=O)[C@H](Cc1ccccc1)NC(=O)[C@H](CC(N)=O)NC(=O)[C@@H](NC(=O)[C@H](Cc1c[nH]c2ccccc12)NC(=O)[C@@H]1CCCN1C(=O)[C@H](CO)NC(=O)[C@@H](N)Cc1ccc(O)cc1)[C@@H](C)O)NC(=O)[C@H](Cc1ccccc1)NC(=O)[C@H](CC(N)=O)NC(=O)[C@@H](NC(=O)[C@H](Cc1c[nH]c2ccccc12)NC(=O)[C@@H]1CCCN1C(=O)[C@H](CO)NC(=O)[C@@H](N)Cc1ccc(O)cc1)[C@@H](C)O)C(N)=O [(YSPWTNF)4-K2-K-NH2] (I: H-YSPWTNFKK-NH2 / II: H-YSPWTNFK / III: H-YSPWTNF / IV: H-YSPWTNF; amide I:8-IV:C, I:9-II:C, II:8-III:C) | 1000 nM |  |  | 
2 | CC(C)(C)NC(=O)[C@@H]1CN(Cc2cccnc2)CCN1C[C@@H](O)C[C@@H](Cc1ccccc1)C(=O)N[C@H]1c2ccccc2C[C@H]1O [Crixivan®, Indinavir Sulfate] |  | 70 nM | 0.5 µM | 
3 | Nc1ccn([C@@H]2CS[C@H](CO)O2)c(=O)n1 [Epivir®, Lamivudine] |  | 50 nM | 0.5 µM | 
4 | YSPWTNF-NH2 [YSPWTNF-NH2] | 10 nM |  |  | 
5 | C[C@@H](O)[C@H](NC(=O)[C@H](Cc1c[nH]c2ccccc12)NC(=O)[C@@H]1CCCN1C(=O)[C@H](CO)NC(=O)[C@@H](N)Cc1ccc(O)cc1)C(=O)N[C@@H](CC(N)=O)C(=O)N[C@@H](Cc1ccccc1)C(=O)NCCCCC(N)=O [YSPWTNF-valerate-NH2] (H-YSPWTNF[Ava]-NH2; N-terminus assumed) | 500 nM |  |  | > 5 µM
6 | C[C@H](O)[C@@H](NC(=O)[C@@H](Cc1c[nH]c2ccccc12)NC(=O)[C@H]1CCCN1C(=O)[C@@H](CO)NC(=O)[C@H](N)Cc1ccc(O)cc1)C(=O)N[C@H](CC(N)=O)C(=O)N[C@H](Cc1ccccc1)C(N)=O [YdSdPdWdTdNdFd-NH2] (H-[dY][dS][dP][dW][dT][dN][dF]-NH2) | 5000 nM |  |  | 
7 | YSPITNF-NH2 [YSPITNF-NH2] | 300 nM |  |  | 
